# Measurements: patent US11851426B2, “Bicyclic amines as CDK2 inhibitors” (Incyte Corporation, priority 2019, dated 2023)
# Biological target: CDK2/Cyclin E1 (Homo sapiens (Human), UniProt P24941)
# Test: CDK2/Cyclin E1 HTRF enzyme activity assay
# Type: biochemical
# Conditions: 1 mM ATP; CDK2/Cyclin E1 0.25 nM; 60 minutes at room temperature
# In short: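 Full-length GST-CDK2 co-expressed with FLAG-Cyclin E1 (baculovirus), 0.25 nM, reacted with 50 nM ULight-4E-BP1 (Thr37/46) peptide at 50 μM or 1 mM ATP in HEPES pH 7.5 buffer, 60 min, room temperature. EDTA plus Eu-anti-phospho-4E-BP1 antibody stopped the reaction; HTRF read after 1 h; IC50 from three- or four-parameter fits.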
row,IC50,Compound
1,≤ 20 nM,"CCOc1c(-c2cn[nH]c2)ccn2nc(N[C@H]3CCN(S(=O)(=O)CCCN4CCCC4)C[C@H]3C)nc12 [Example 29, 8-ethoxy-N-((3R,4S)-3-methyl-1-((3-(pyrrolidin-1-yl)propyl)sulfonyl)piperidin-4-yl)-7-(1H-pyrazol-4-yl)-[1,2,4]triazolo[1,5-a]pyridin-2-amine]"
2,≤ 20 nM,"CS(=O)(=O)N1CCC(Nc2nc3c(-c4ccccc4)c(-c4cn[nH]c4)ccn3n2)CC1 [Example 22, N-(1-(methylsulfonyl)piperidin-4-yl)-8-phenyl-7-(1H-pyrazol-4-yl)-[1,2,4]triazolo[1,5-a]pyridin-2-amine]"
3,≤ 20 nM,"C[C@@H]1CN(S(=O)(=O)c2cn(C)cn2)CC[C@@H]1Nc1nc2ccc(-c3cn[nH]c3)c(N3CCCCC3)n2n1 [Example 86, N-((3R,4S)-3-Methyl-1-((1-methyl-1H-imidazol-4-yl)sulfonyl)piperidin-4-yl)-5-(piperidin-1-yl)-6-(1H-pyrazol-4-yl)-[1,2,4]triazolo[1,5-a]pyridin-2-amine]"
4,≤ 20 nM,"CS(=O)(=O)N1CCC(Nc2nc3c(-c4cccc(C(F)(F)F)c4)c(-c4cn[nH]c4)ncn3n2)CC1 [Example 35, N-(1-(methylsulfonyl)piperidin-4-yl)-7-(1H-pyrazol-4-yl)-8-(3-(trifluoromethyl)phenyl)-[1,2,4]triazolo[1,5-c]pyrimidin-2-amine]"
5,≤ 20 nM,"C[C@@H]1CN(S(C)(=O)=O)CC[C@@H]1Nc1nc2ccc(-c3cn[nH]c3)c(OCC3CCC3)n2n1 [Example 76, 5-(Cyclobutylmethoxy)-N-((3R,4S)-3-methyl-1-(methylsulfonyl)piperidin-4-yl)-6-(1H-pyrazol-4-yl)-[1,2,4]triazolo[1,5-a]pyridin-2-amine]"
6,≤ 20 nM,"C[C@@H]1CN(S(C)(=O)=O)CC[C@@H]1Nc1nc2c(OC3CCOCC3)c(-c3cn[nH]c3)ccn2n1 [Example 42, N-((3R,4S)-3-methyl-1-(methylsulfonyl)piperidin-4-yl)-7-(1H-pyrazol-4-yl)-8-((tetrahydro-2H-pyran-4-yl)oxy)-[1,2,4]triazolo[1,5-a]pyridin-2-amine]"
7,≤ 20 nM,"CCCOc1c(-c2cn[nH]c2)ccc2nc(NC3CCN(S(C)(=O)=O)CC3)nn12 [Example 78, N-(1-(Methylsulfonyl)piperidin-4-yl)-5-propoxy-6-(1H-pyrazol-4-yl)-[1,2,4]triazolo[1,5-a]pyridin-2-amine]"
8,≤ 20 nM,"CS(=O)(=O)N1CCC(Nc2nc3c(OC4CCOCC4)c(-c4cn[nH]c4)ccn3n2)CC1 [Example 5, N-(1-(methylsulfonyl)piperidin-4-yl)-7-(1H-pyrazol-4-yl)-8-((tetrahydro-2H-pyran-4-yl)oxy)-[1,2,4]triazolo[1,5-a]pyridin-2-amine]"

row,Compound,IC50
1,"CCCCOc1c(-c2cn[nH]c2)ncc2nc(N[C@H]3CCN(S(C)(=O)=O)C[C@H]3C)nn12 [Example 103, 5-Butoxy-N-((3R,4S)-3-methyl-1-(methylsulfonyl)piperidin-4-yl)-6-(1H-pyrazol-4-yl)-[1,2,4]triazolo[1,5-a]pyrazin-2-amine]",≤ 20 nM
